Experiment [1] has as its target T1, GIPR (Homo sapiens, UniProt P48546, W90A).
T1 sequence (P48546 22-466 W90A): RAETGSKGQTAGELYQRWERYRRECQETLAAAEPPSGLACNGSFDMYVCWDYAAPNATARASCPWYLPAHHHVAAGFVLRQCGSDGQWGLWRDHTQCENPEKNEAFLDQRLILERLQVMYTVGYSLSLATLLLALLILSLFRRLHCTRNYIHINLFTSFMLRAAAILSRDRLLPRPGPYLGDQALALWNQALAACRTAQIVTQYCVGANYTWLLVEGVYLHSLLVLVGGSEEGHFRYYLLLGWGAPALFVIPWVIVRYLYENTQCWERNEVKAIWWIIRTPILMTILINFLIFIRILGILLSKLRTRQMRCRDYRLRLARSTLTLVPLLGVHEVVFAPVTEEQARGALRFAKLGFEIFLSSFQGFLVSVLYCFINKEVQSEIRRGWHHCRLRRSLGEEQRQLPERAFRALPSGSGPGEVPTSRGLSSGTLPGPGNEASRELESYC
Nature of the experiment: cAMP accumulation assay (LANCE Ultra cAMP kit), GIPR WT, mutant or modified constructs. Format: cell-based. Also on record: acylated tirzepatide to the full-length or modified; Flag; expressed in transfected cells; host or cells: HEK293T. To be noted: HEK-293T, GIPR W90A; HEK293T. An outline of the steps: (§1)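 HEK293T cells transiently transfected with human GIPR WT or mutant constructs (pcDNA3.1), used after 24 h. The cells were stimulated with peptide agonists for 40 min at RT in HBSS with 5 mM HEPES, 0.1% BSA or casein, and 0.5 mM IBMX. cAMP was read by LANCE Ultra TR-FRET (Eu-cAMP tracer/ULight anti-cAMP, 1 h RT, 620/650 nm).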

The target in experiment [2] is T2, GIPR (Homo sapiens, UniProt P48546, D191A/Q138A/R196A).
T2 sequence (P48546 22-466 Q138A/D191A/R196A): T1 sequence (P48546 22-466 W90A) with A69W, Q117A, D170A, R175A
The experiment is described as above. Format: cell-based. Also on record: acylated tirzepatide to the full-length or modified; Flag; expressed in transfected cells; host or cells: HEK293T. To be noted: GIPR Q138A/D191A/R196A, HEK293T. An outline of the steps: as §1

Experiment [3] deals with T3, GLP-1R (Homo sapiens, UniProt P43220, Y152A).
T3 construct: Flag; expressed in transfected cells
Nature of the experiment: Whole-cell binding assay, competition with 125I-GLP-1(7-36)NH2. To be noted: GLP-1R Y152A; CHO-K1. How it is done:
(§2) Human embryonic kidney 293 cells containing SV40 large T-antigen (HEK293T) were cultured in DMEM (Gibco) supplemented with 10% (v/v) fetal bovine serum (FBS, Gibco), 1 mM sodium pyruvate (Gibco) and 100 units/mL penicillin and 100 μg/mL streptomycin at 37 °C in 5% CO2. Chinese hamster ovary (CHO-K1) cells were cultured in F-12 (Gibco) containing 10% FBS, 100 units/mL penicillin and 100 μg/mL streptomycin at 37 °C in 5% CO2. For cAMP and receptor expression assays, HEK293T cells were seeded into 6-well cell culture plates at a density of 7 × 10^5 cells per well. After overnight incubation, cells were transfected with GIPR, GLP-1R or GCGR construct using Lipofectamine 2000 or Lipofectamine 3000 transfection reagent (Invitrogen). For whole-cell binding assay, CHO-K1 cells were seeded into 96-well fibronectin-treated cell culture plates at a density of 3 × 10^4 cells per well. […] Following 24 h culturing, the transfected cells were ready for use.
(§3) For GLP-1R and GCGR, CHO-K1 cells (30,000 cells/well) were seeded into Isoplate-96 plates and incubated for 24 h at 37 °C in 5% CO2. […] After addition of scintillation cocktail (PerkinElmer), radioactivity (CPM) was counted on a MicroBeta^2 microplate counter (PerkinElmer). Data were normalized to the WT response and analyzed using three-parameter logistic equation.

Experiment [4] deals with T4, GLP-1R (Homo sapiens, UniProt P43220, R299A).
T4 construct: Flag; expressed in transfected cells
Described as above. To be noted: GLP-1R R299A; CHO-K1. How it is done:
as §2, §3

Substitutions are numbered along the chain they refer to.

T3 sequence (P43220 24-463 Y152A): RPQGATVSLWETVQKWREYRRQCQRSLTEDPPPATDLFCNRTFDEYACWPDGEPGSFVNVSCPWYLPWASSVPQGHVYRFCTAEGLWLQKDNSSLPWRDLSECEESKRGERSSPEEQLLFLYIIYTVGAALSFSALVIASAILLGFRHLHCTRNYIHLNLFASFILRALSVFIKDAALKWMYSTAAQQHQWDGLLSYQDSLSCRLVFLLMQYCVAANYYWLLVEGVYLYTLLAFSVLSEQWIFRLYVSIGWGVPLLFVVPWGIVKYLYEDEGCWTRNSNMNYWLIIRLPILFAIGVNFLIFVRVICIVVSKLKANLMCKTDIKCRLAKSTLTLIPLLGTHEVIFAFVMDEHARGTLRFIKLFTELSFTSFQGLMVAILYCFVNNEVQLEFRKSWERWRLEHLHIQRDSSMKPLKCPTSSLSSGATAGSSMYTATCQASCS
T4 sequence (P43220 24-463 R299A): as the sequence (P43220 24-463 Y152A) above, with A129Y, R276A counted along it

For the molecule `CCCCCCCCCCCCCCCC(=O)N[C@@H](CCC(=O)NCCCC[C@H](NC(=O)[C@H](CC(=O)O)NC(=O)[C@H](CO)NC(=O)[C@@H](NC(=O)[C@H](Cc1ccccc1)NC(=O)[C@@H](NC(=O)CNC(=O)[C@H](CCC(N)=O)NC(=O)C(C)(C)NC(=O)[C@@H](N)Cc1c[nH]cn1)[C@@H](C)O)[C@@H](C)O)C(=O)N[C@@H](CO)C(=O)N[C@@H](CCCCN)C(=O)N[C@@H](Cc1ccc(O)cc1)C(=O)N[C@@H](CC(C)C)C(=O)N[C@@H](CC(=O)O)C(=O)N[C@@H](CCC(=O)O)C(=O)N[C@@H](CCCNC(=N)N)C(=O)N[C@@H](C)C(=O)N[C@@H](C)C(=O)N[C@@H](CCC(N)=O)C(=O)N[C@@H](CC(=O)O)C(=O)N[C@@H](Cc1ccccc1)C(=O)N[C@H](C(=O)N[C@@H](CCC(N)=O)C(=O)N[C@@H](Cc1c[nH]c2ccccc12)C(=O)N[C@@H](CC(C)C)C(=O)N[C@@H](CC(C)C)C(=O)N[C@@H](CC(=O)O)C(=O)NCC(=O)NCC(=O)N1CCC[C@H]1C(=O)N[C@@H](CO)C(=O)N[C@@H](CO)C(=O)NCC(=O)N[C@@H](C)C(=O)N1CCC[C@H]1C(=O)N1CCC[C@H]1C(=O)N1CCC[C@H]1C(=O)N[C@@H](CO)C(N)=O)C(C)C)C(=O)O` [Peptide 20], the Emax is 98 ± 4.59% at GIPR [1] and 56.3 ± 12.2% at GIPR [2] (HEK-293T). In addition, the EC50 on GIPR [2] (read-out: cAMP pEC50 (converted)) is 30.2 nM.

With `CC[C@H](C)[C@H](NC(=O)[C@H](CC(C)C)NC(=O)[C@H](Cc1c[nH]c2ccccc12)NC(=O)[C@H](CCC(N)=O)NC(=O)[C@@H](NC(=O)[C@H](Cc1ccccc1)NC(=O)[C@H](C)NC(=O)[C@H](CCCCNC(=O)COCCOCCNC(=O)COCCOCCNC(=O)CC[C@H](NC(=O)CCCCCCCCCCCCCCCCCCC(=O)O)C(=O)O)NC(=O)[C@H](CCC(N)=O)NC(=O)[C@H](C)NC(=O)[C@@H](NC(=O)[C@H](CCCCN)NC(=O)[C@H](CC(=O)O)NC(=O)[C@H](CC(C)C)NC(=O)C(C)(C)NC(=O)[C@@H](NC(=O)[C@H](CO)NC(=O)[C@H](Cc1ccc(O)cc1)NC(=O)[C@H](CC(=O)O)NC(=O)[C@H](CO)NC(=O)[C@@H](NC(=O)[C@H](Cc1ccccc1)NC(=O)[C@@H](NC(=O)CNC(=O)[C@H](CCC(=O)O)NC(=O)C(C)(C)NC(=O)[C@@H](N)Cc1ccc(O)cc1)[C@@H](C)O)[C@@H](C)O)[C@@H](C)CC)[C@@H](C)CC)C(C)C)C(=O)N[C@@H](C)C(=O)NCC(=O)NCC(=O)N1CCC[C@H]1C(=O)N[C@@H](CO)C(=O)N[C@@H](CO)C(=O)NCC(=O)N[C@@H](C)C(=O)N1CCC[C@H]1C(=O)N1CCC[C@H]1C(=O)N1CCC[C@H]1C(=O)N[C@@H](CO)C(N)=O` [Tirzepatide], the results for the “binding Span” value at GLP-1R [3] and at GLP-1R [4] were 11.22 ± 2.82 % WT and 8.59 ± 1.61 % WT, respectively.

One may read the Emax as the maximal effect, on the per cent scale that the assay sets.
